Laboratory results from patent US20070032461A1, “1,3 Aclyated 24-keto-vitamin d3 compounds and methods of use thereof” (BioXell S.p.A., priority 2003, published 2007).
pIC50: −log10 of the molar value.

Tests used:
[1] = test system: ILT3 surface molecule expression on immature dendritic cells; experiment: ILT3 upregulation on monocyte-derived immature dendritic cells, flow cytometric analysis; format: cell-based, human; details: immature dendritic cells cultured 24 hours with graded doses, up to 1000 nM
Method: Immature dendritic cells (DC) were prepared as described in Romani, N. et al. (Romani, N. et al. (1996) J. Immunol. Meth. 196:137). Briefly, peripheral blood mononuclear cells (PBMCs) were obtained from a buffy coat by ficoll-hypaque gradient (Pharmacia Biotec AB, Upsala, Sweden) and monocytes isolated from PBMCs by negative selected with a monocyte isolation kit (Milteny, Biotech, Bergish Gladblach, Germany). After isolation, monocytes were cultured for 6 to 7 days at a cell density of 1-2×10^6 in RPMI medium supplemented with 5% FetalClone I (Hyclone Laboratories, Logan, Utah) 2 mM L-glutamine, […], 1 mM sodium pyruvate and 1% nonessential amino acids, containing 800 U/ml GM-CSF (Mielogen 300, Schering-Plough) and 10 ng/ml interleukin (IL)-4 (PharMingen, San Diego, Calif.). Every other day, approximately 20% of the medium was removed and replaced by the same volume of fresh medium containing GM-CSF and IL-4.
After 6 to 7 days of culture, non-adherent cells (representing immature Dendritic Cells) were harvested and cultured for 24 hours in the presence of graded doses of the following vitamin D compounds: 1,25(OH)2D3; 1,3-O-Diacetyl-1,25 Dihydroxy-16-ene-24-Keto-19-nor Cholecalciferol (compound (2)); and the compounds Mycophenolate Mofetil (MMF) and Dexamethasone (DEX).
Immunoglobulin-Hike transcript-3 upregulation was evaluated by flow cytometric analysis. Briefly, cells were preincubated with […] human IgG (Sigma Chemical, St. Louis, Mo.) and subsequently stained with anti-human ILT3 antibody (see, e.g., Cella, M. et al. (1997) J. Exp. Med. 185:1743) followed by anti-mouse IgG-phycoerithryn (Jackson). Cells were then analyzed with a FACScan® flow cytometer using a Cell Quests software program (both from Beckton Dickinson, Mountain View, Calif.).

[2] = Maximum tolerated dose (MTD) without inducing hypercalcemia, oral daily dosing for four days, serum calcium assay; format: in vivo, C57BL/6 mice
Method: The maximum tolerated dose of the vitamin D3 compounds of the invention were determined in eight week-old female C57BL/6 mice (3 mice/group) dosed orally (0.1 ml/mouse) with various concentrations of Vitamin D3 analogs daily for four days. Analogs were formulated in miglyol for a final concentration of 0.01, 0.03, 0.1 0.3, 1, 3, 10, 30, 100 and 300 μg/kg when given at 0.1 ml/mouse p.o. daily. Blood for serum calcium assay was drawn by tail bleed on day five, the final day of the study. Serum calcium levels were determined using a colorimetric assay (Sigma Diagnostics, procedure no. 597). The highest dose of analog tolerated without inducing hypercalcemia (serum calcium >10.7 mg /dl) was taken as the maximum tolerated dose (MTD).

[3] = test system: IFN-γ production in MLR (allogeneic PBMC); experiment: IFN-γ production by allogeneic T cell activation in the mixed leukocyte response (MLR), ELISA; format: cell-based; details: 120 h, MLR of allogeneic PBMC from 2 donors, 5 days, read-out: INF-γ IC50
Method: Immature dendritic cells (DC) were prepared as described in Romani, N. et al. (Romani, N. et al. (1996) J. Immunol. Meth. 196:137). IFN-γ production by allogeneic T cell activation in the mixed leukocyte response (MLR) was determined as described in Penna, G., et al., J. Immunol., 164: 2405-2411 (2000).
Briefly, peripheral blood mononuclear cells (PBMC) were separated from buffy coats by Ficoll gradient and the same number (3×10^5) of allogeneic PBMC from 2 different donors were co-cultured in 96-well flat-bottom plates. After 5 days, IFN-γ production in the MLR assay was measured by ELISA and the results expressed as amount (nM) of test compound required to induce 50% inhibition of IFN-γ production (IC50).

[4] = female C57BL/6 mice, p.o. daily for four days, highest dose without hypercalcemia (serum calcium >10.7 mg/dl)

Compound	ILT3 expression on cell surface [1]	MTD (mice) [2, 4] [µg/kg]	MTD relative to compound (1) ([2]; mice, oral, ratio of the MTD of compound (2) to that of the corresponding dihydroxy compound (1))	MTD at 4 days ([2]; mouse, po, female C57BL/6 mice, p.o. daily for four days, highest dose without hypercalcemia (serum calcium >10.7 mg/dl)) [µg/kg]	pIC50 [3]
1,25(OH)2D3	upregulated	1	–	–	–
CC(=O)O[C@@H]1CC(=C/C=C2\CCC[C@]3(C)C([C@H](C)CCC(=O)C(C)(C)O)=CCC23)C[C@@H](OC(C)=O)C1 (some centres unmarked) [Compound (2), 1,3-O-Diacetyl-1,25-Dihydroxy-16-ene-24-Keto-19-nor-Cholecalciferol]	upregulated	–	more than 300 times	> 300	11.10
COc1c(C)c2c(c(O)c1C/C=C(\C)CCC(=O)OCCN1CCOCC1)C(=O)OC2 [MMF, Mycophenolate Mofetil]	fail to upregulate	–	–	–	–
CC(CCC(=O)C(C)(C)O)C1=CCC2C(=CC=C3CC(O)CC(O)C3)CCCC12C (centres unmarked) [(1), 1,25-dihydroxy-16-ene-24-keto-19-nor-cholecalciferol]	–	1	–	–	–
